Results reported in US7374748B2, “Pharmaceutical and cosmetic compositions for the protection of the skin from damages induced by sun radiations” (Indena S.p.A., priority 2001, dated 2008).

Test system: hepatic microsomes
Assay: antioxidant test with CCl4 as pro-oxidant stimulus and hepatic microsomes as target
Assay type: biochemical
Details: CCl4 as pro-oxidant stimulus, hepatic microsomes as target
Description: They are characterized by excellent antioxidizing and antiinflammatory properties.

With vitamin E the “LC50 (antioxidant activity)” value was 30.0 micrograms per ml.
